PMC10893631, “Receptor-based pharmacophore modeling, molecular docking, synthesis and biological evaluation of novel VEGFR-2, FGFR-1, and BRAF multi-kinase inhibitors” (BMC Chemistry, 2024)

How the values were obtained:
Assay in all cases: NCI SRB growth inhibition (single dose 10 µM / five-dose)
Type in all cases: cell-based, human
RXF 393 = details: Homo sapiens
In short: (§1)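 Two-stage NCI-60 screen: single-dose test first, then five-dose testing. Growth is scored by sulforhodamine B staining of TCA-fixed cells relative to a time-zero plate, and TGI is taken where Ti = Tz.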

SN12C = details: Homo sapiens
In short: as §1

SF-295 = details: Homo sapiens
In short: as §1

SK-OV-3 = details: Homo sapiens; SK-OV-3, Ovarian cancer; five-dose
In short: as §1

SF-539 = details: Homo sapiens
In short: as §1

UACC-62 = details: Homo sapiens
In short: as §1

SW-620 = details: Homo sapiens
In short: as §1

SK-MEL-28 = details: Homo sapiens
In short: as §1

MDA-MB-231/ATCC = details: Homo sapiens
In short: as §1

CCRF-CEM = details: Homo sapiens
In short: as §1

EKVX = details: Homo sapiens
In short: as §1

OVCAR-8 = details: Homo sapiens
In short: as §1

HS 578 T = details: Homo sapiens
In short: as §1

NCI-H460 = details: Homo sapiens
In short: as §1

TK-10 = details: Homo sapiens
In short: as §1

BT-549 = details: Homo sapiens
In short: as §1

MCF7 = details: Homo sapiens
In short: as §1

M14 = details: Homo sapiens
In short: as §1

MDA-MB-435 = details: Homo sapiens
In short: as §1

A549/ATCC = details: Homo sapiens
In short: as §1

786–0 = details: Homo sapiens
In short: as §1

MDA-MB-468 = details: Homo sapiens
In short: as §1

KM12 = details: Homo sapiens
In short: as §1

SF-268 = details: Homo sapiens
In short: as §1

CAKI-1 = details: Homo sapiens
In short: as §1

SR = details: Homo sapiens
In short: as §1

`O=C(NN=Cc1ccccc1O)c1ccc2[nH]c(-c3ccc(Cl)cc3)nc2c1` [8o, 2-(4-Chlorophenyl)-N'-(2-hydroxybenzylidene)-1H-benzo[d]imidazole-5-carbohydrazide] was tested, and the inhibition at 10 µM (RXF 393; RXF 393 (Renal cancer), 10 µM, read-out: GI%) was over 100%, the GI50 (RXF 393; RXF 393, Renal cancer, five-dose) was 0.79 µM and the inhibition at 10 µM (SN12C; SN12C (Renal cancer), 10 µM, read-out: GI%) was 59.4%. It also gave a GI50 (SN12C; SN12C, Renal cancer, five-dose) of 3.41 µM, an inhibition at 10 µM (SF-295; SF-295 (CNS cancer), 10 µM, read-out: GI%) of over 100% and a GI50 (SF-295; SF-295, CNS cancer, five-dose) of 1.6 µM. The GI50 (SK-OV-3) was 4.53 µM, the inhibition at 10 µM (SF-539; SF-539 (CNS cancer), 10 µM, read-out: GI%) was over 100% and the GI50 (SF-539; SF-539, CNS cancer, five-dose) was 0.37 µM. The inhibition at 10 µM (UACC-62; UACC-62 (Melanoma), 10 µM, read-out: GI%) was 95.3%, the GI50 (UACC-62; UACC-62, Melanoma, five-dose) was 1.69 µM and the inhibition at 10 µM (SW-620; SW-620 (Colon cancer), 10 µM, read-out: GI%) was over 100%. For the same compound, the GI50 (SW-620; SW-620, Colon cancer, five-dose) was 0.33 µM, the inhibition at 10 µM (SK-MEL-28; SK-MEL-28 (Melanoma), 10 µM, read-out: GI%) was 78.2% and the GI50 (SK-MEL-28; SK-MEL-28, Melanoma, five-dose) was 1.85 µM. The inhibition at 10 µM (MDA-MB-231/ATCC; MDA-MB-231/ATCC (Breast cancer), 10 µM, read-out: GI%) was over 100%, the GI50 (MDA-MB-231/ATCC; MDA-MB-231/ATCC, Breast cancer, five-dose) was 1.41 µM and the inhibition at 10 µM (CCRF-CEM; CCRF-CEM (Leukemia), 10 µM, read-out: GI%) was over 100%. The GI50 (CCRF-CEM; CCRF-CEM, Leukemia, five-dose) was over 38.8 µM, the inhibition at 10 µM (EKVX; EKVX (Non-small cell lung cancer), 10 µM, read-out: GI%) was 67.2% and the GI50 (EKVX; EKVX, Non-small cell lung cancer, five-dose) was 9.31 µM. The inhibition at 10 µM (OVCAR-8; OVCAR-8 (Ovarian cancer), 10 µM, read-out: GI%) was over 100%, the GI50 (OVCAR-8; OVCAR-8, Ovarian cancer, five-dose) was 0.98 µM and the inhibition at 10 µM (HS 578 T; HS 578 T (Breast cancer), 10 µM, read-out: GI%) was over 100%. The GI50 (HS 578 T; HS 578 T, Breast cancer, five-dose) was 0.26 µM, the inhibition at 10 µM (NCI-H460; NCI-H460 (Non-small cell lung cancer), 10 µM, read-out: GI%) was over 100% and the GI50 (NCI-H460; NCI-H460, Non-small cell lung cancer, five-dose) was 0.25 µM. The inhibition at 10 µM (TK-10; TK-10 (Renal cancer), 10 µM, read-out: GI%) was 95%, the GI50 (TK-10; TK-10, Renal cancer, five-dose) was 5.08 µM and the inhibition at 10 µM (BT-549; BT-549 (Breast cancer), 10 µM, read-out: GI%) was 60.6%. The GI50 (BT-549; BT-549, Breast cancer, five-dose) was 3.57 µM, the inhibition at 10 µM (MCF7; MCF7 (Breast cancer), 10 µM, read-out: GI%) was 93.7% and the GI50 (MCF7; MCF7, Breast cancer, five-dose) was 0.16 µM. For the same compound, the inhibition at 10 µM (M14; M14 (Melanoma), 10 µM, read-out: GI%) was 90.9%, the GI50 (M14; M14, Melanoma, five-dose) was 1.81 µM and the inhibition at 10 µM (MDA-MB-435; MDA-MB-435 (Melanoma), 10 µM, read-out: GI%) was over 100%. The GI50 (MDA-MB-435; MDA-MB-435, Melanoma, five-dose) was 0.53 µM, the inhibition at 10 µM (A549/ATCC; A549/ATCC (Non-small cell lung cancer), 10 µM, read-out: GI%) was 87% and the GI50 (A549/ATCC; A549/ATCC, Non-small cell lung cancer, five-dose) was 1.8 µM. The inhibition at 10 µM (786–0; 786–0 (Renal cancer), 10 µM, read-out: GI%) was over 100%, the GI50 (786–0; 786–0, Renal cancer, five-dose) was 0.83 µM and the inhibition at 10 µM (MDA-MB-468; MDA-MB-468 (Breast cancer), 10 µM, read-out: GI%) was over 100%. The GI50 (MDA-MB-468; MDA-MB-468, Breast cancer, five-dose) was 1.51 µM, the inhibition at 10 µM (KM12; KM12 (Colon cancer), 10 µM, read-out: GI%) was 85.4% and the GI50 (KM12; KM12, Colon cancer, five-dose) was 1.24 µM. For the same compound, the inhibition at 10 µM (SF-268; SF-268 (CNS cancer), 10 µM, read-out: GI%) was over 100%, the GI50 (SF-268; SF-268, CNS cancer, five-dose) was 0.84 µM and the inhibition at 10 µM (CAKI-1; CAKI-1 (Renal cancer), 10 µM, read-out: GI%) was over 100%. It also gave a GI50 (CAKI-1; CAKI-1, Renal cancer, five-dose) of 0.22 µM, an inhibition at 10 µM (SR; SR (Leukemia), 10 µM, read-out: GI%) of 75.2% and a GI50 (SR; SR, Leukemia, five-dose) of 0.12 µM.
